According to patent US20230082929A1, “METHODS OF GENERATING AND USING SENESCENT-INDUCED CELLS FOR TREATMENT OF CANCER AND COMPOSITIONS RELATING THERETO” (The Wistar Institute of Anatomy and Biology, priority 2020, published 2023):

What was measured:
SASP factors [1] = assay: SASP factor expression (qRT-PCR) and secretion (antibody array) in UPK10 cells; format: cell-based, mouse
Description: UPK10 and ID8 cells were treated with […], or a combination for three days. The drugs were then released from drug treatment and cultured for three days or extended period as indicated. The senescent cells were labelled with SPiDER-0 Gal Cellular Senescence Detection Kit (Dojindo, Cat. No: SG02-10) following the manufacture's instruction. Both senescent and non-senescent cells were sorted using flow cytometry. Mouse Cytokine Array C1 kit (RayBiotech. Cat. No: AAM-CYT-1-2) was used for cytokine analysis following the manufacturer's guidelines. Briefly, cells were washed once and cultured in serum-free medium for 48 hrs. Conditioned medium was filtered (0.2 μm) and then subjected to cytokine-array analysis. After collection of conditional media, the cell number of each sample was counted. The intensities of array dots were visualized on film after incubation with SuperSignal West Pico PLUS Chemiluminescent Substrate (Thermo Fisher Scientific. Cat. No: 34580). The integrated density was measured using Image J and normalized to the cell number from which the conditioned medium was generated. Total RNA was isolated using Trizol (Invitrogen) according to the manufacturer's instruction. Extracted RNAs were used for reverse-transcriptase PCR (RT-PCR) with High-Capacity cDNA Reverse Transcription Kit (Thermo fisher, Cat. No: 4368814). Quantitative PCR (qPCR) was performed using iTaq™ Universal SYBR® Green Supermix (BIO-RAD, Cat. No: 1725121) and QuantStudio 3 Real-Time PCR System.

ID8-Defb29/Vegf-a cells = assay: Cisplatin-induced senescence, SA-β-gal staining of ID8-Defb29/Vegf-a cells; format: cell-based, mouse; settings: 2 μM Cisplatin for 48 hours
Description: For oncogene-induced senescence, IMR90 cells were infected with retrovirus produced by pBABE-puro-H-RAS^G12V (Addgene) at 37° C. for 24 hr. A second round of infection was performed on the same target cells. Infected cells were drug-selected using 3 μg/ml puromycin (Nacarelli et al., 2019). For Etoposide-induced senescence, IMR90 or OVCAR3 cells at approximately 60-70% confluency were treated with 50 μM or 2 μM Etoposide for 48 hours. The treated cells were cultured in fresh medium and harvested at day 8. For Cisplatin-induced senescence, OVCAR3 or ID8-Defb29/Vegf-a cells at approximately 60-70% confluency were treated with 2 μM Cisplatin for 48 hours. The treated cells were cultured in fresh medium and harvested at day 8.
(§1) SA-β-Gal staining was performed as previously described (Nacarelli et al., 2019). Briefly, cells were fixed for 5 mins at room temperature in 2% formaldehyde/0.2 glutaraldehyde in PBS. After washing twice with PBS, cells were stained at 37° C. overnight in a non-CO2 incubator in staining solution (40 mM Na2HPO4, pH 6.0, 150 mM NaCl, 2 mM MgCl2, 5 mM K3Fe(CN)6, 5 mM K4Fe(CN)6, and 1 mg/ml X-gal. After counterstaining with Nuclear Fast Red solution (Ricca, Cat. No: R5463200500), slides were subjected to an alcohol dehydration series and mounted with Permount (FisherScientific. Cat. No: SP15-100). Slides were examined using a Zeiss AxioImager A2.

UPK10 cells = assay: Senescence induction in UPK10 cells (SA-β-Gal, SPiDER SA-β-Gal, immunoblot); format: cell-based, mouse
Description: as §1
(§2) UPK10 and ID8 cells were treated with […], or a combination for three days. The drugs were then released from drug treatment and cultured for three days or extended period as indicated. The senescent cells were labelled with SPiDER-0 Gal Cellular Senescence Detection Kit (Dojindo, Cat. No: SG02-10) following the manufacture's instruction. Both senescent and non-senescent cells were sorted using flow cytometry.
(§3) Cells were lysed in 1× sample buffer (2% SDS, 10% glycerol, 0.01% bromophenol blue, 62.5 mM Tris, pH 6.8, and 0.1 M DTT) and heated to 95° C. for 10 min. Protein concentrations were determined using the protein assay dye (Bio-Rad. Cat. No: #5000006) and Nanodrop. An equal amount of total protein was resolved using SDS-PAGE gels and transferred to PVDF membranes at 110 V for 2 hours at 4° C. Membranes were blocked with 5% nonfat milk in TBS containing 0.1% Tween 20 (TBS-T) for 1 hour at room temperature. Membranes were incubated overnight at 4° C. in the primary antibodies in 4% BSA/TBS+0.025% sodium azide. Membranes were washed four times in TBS-T for 5 min at room temperature, after which they were incubated with HRP-conjugated secondary antibodies (Cell Signaling Technology. Cat. No: 7076S, 7074S) for 1 hour at room temperature. After washing four times in TBS-T for 5 min at room temperature, proteins were visualized on film after incubation with SuperSignal West Pico PLUS Chemiluminescent Substrate (Thermo Fisher Scientific. Cat. No: 34580).

TOP1cc = target: T1, TOP1cc (Mus musculus, UniProt Q04750); assay: Immunoblot of TOP1cc and SASP regulators in sorted UPK10 cells; format: cell-based
T1 construct: endogenous in cells; host or cells: UPK10 mouse ovarian cancer cells, sorted senescent and non-senescent fractions
T1 sequence (Q04750 1-767): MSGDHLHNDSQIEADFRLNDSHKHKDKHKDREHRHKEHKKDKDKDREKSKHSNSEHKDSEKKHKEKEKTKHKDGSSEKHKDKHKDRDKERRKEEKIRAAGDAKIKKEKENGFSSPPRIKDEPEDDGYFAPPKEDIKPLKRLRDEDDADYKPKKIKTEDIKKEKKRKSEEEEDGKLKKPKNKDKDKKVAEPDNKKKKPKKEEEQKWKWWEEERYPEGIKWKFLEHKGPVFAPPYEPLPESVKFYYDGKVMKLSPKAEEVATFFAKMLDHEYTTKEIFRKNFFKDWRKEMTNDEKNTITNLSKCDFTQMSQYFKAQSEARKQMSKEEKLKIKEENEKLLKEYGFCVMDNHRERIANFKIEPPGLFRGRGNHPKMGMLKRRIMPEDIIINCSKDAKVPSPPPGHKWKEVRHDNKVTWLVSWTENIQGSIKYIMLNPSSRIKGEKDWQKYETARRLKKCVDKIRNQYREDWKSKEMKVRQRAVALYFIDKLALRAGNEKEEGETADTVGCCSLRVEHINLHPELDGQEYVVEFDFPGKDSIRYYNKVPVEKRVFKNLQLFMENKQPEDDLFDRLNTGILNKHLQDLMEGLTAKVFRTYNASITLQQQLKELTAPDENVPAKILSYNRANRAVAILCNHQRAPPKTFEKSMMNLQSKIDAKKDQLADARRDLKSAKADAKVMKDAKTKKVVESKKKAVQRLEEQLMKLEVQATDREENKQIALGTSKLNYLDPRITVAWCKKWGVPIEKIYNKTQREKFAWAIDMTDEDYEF
Description: as §2, §3
• anti-Topoisomerase I-DNA Covalent Complexes (TOP1cc) (clone 1.1A) (Millipore. Cat. No: MABE1084), 1:1000 for slot blot • anti-TOP1 (Proteintech. Cat. No: 20705-1-AP), 1:1000 for immunoblotting • anti-cGAS (D9) (Santa Cruz. Cat. No: sc-515777), 1:1000 for immunoblotting; • anti-Cyclin A (H432) (Santa Cruz. Cat. No: sc-751), 1:1000 for immunoblotting; • anti-βactin (Sigma. Cat. No: A2228), 1:10000 for immunoblotting.

SASP factors [2] = assay: SASP factor expression by qRT-PCR in ID8 cells; format: cell-based, mouse
Description: UPK10 and ID8 cells were treated with […], or a combination for three days. The drugs were then released from drug treatment and cultured for three days or extended period as indicated. The senescent cells were labelled with SPiDER-0 Gal Cellular Senescence Detection Kit (Dojindo, Cat. No: SG02-10) following the manufacture's instruction. Both senescent and non-senescent cells were sorted using flow cytometry. Total RNA was isolated using Trizol (Invitrogen) according to the manufacturer's instruction. Extracted RNAs were used for reverse-transcriptase PCR (RT-PCR) with High-Capacity cDNA Reverse Transcription Kit (Thermo fisher, Cat. No: 4368814). Quantitative PCR (qPCR) was performed using iTaq™ Universal SYBR® Green Supermix (BIO-RAD, Cat. No: 1725121) and QuantStudio 3 Real-Time PCR System.

[3] = cisplatin three days, three days of release

Compound: Cc1ccc2c(=O)c3cccc(CC(=O)O)c3oc2c1C [DMXAA]
- SASP factor levels compared with senescent cells sorted from cisplatin and irinotecan combination treatment (SASP factors [1]; UPK10 cells): significantly lower levels
- expression and secretion of SASP factors (SASP factors [1]; UPK10 cells, DMXAA as control): sufficient to increase the expression and secretion of SASP factors

Compound: N.N.[Cl][Pt][Cl] [cisplatin, Cisplatin]
- treated cells in which senescence was induced (ID8-Defb29/Vegf-a cells): ~100%
- concentration chosen on optimal induction of SASP factors IL1β, IL8, CXCL10 in a dose-titration study (SASP factors [1]; UPK10 cells): 10 µM
- cell proliferation marker cyclin A (UPK10 cells; [3]): decrease in cell proliferation marker cyclin A
- markers of senescence (SA-β-Gal activity, p16, γH2AX) (UPK10 cells; [3]): induction of markers of senescence including senescence-associated β-galactosidase (SA-β-Gal) activity, p16 and γH2AX

Compound: CCc1c2c(nc3ccc(OC(=O)N4CCC(N5CCCCC5)CC4)cc13)-c1cc3c(c(=O)n1C2)COC(=O)[C@]3(O)CC [irinotecan]
- TOP1cc levels in sorted senescent cells (TOP1cc; compared with cisplatin-induced senescent cells, UPK10): increased by irinotecan addition
- TOP1cc levels in sorted non-senescent cells (TOP1cc; compared with vehicle control treated non-senescent cells, UPK10): notably higher
- SASP regulators phospho-p65 NF-κB and phosphor-p38 MAPK (TOP1cc; sorted senescent UPK10 cells): increase in SASP regulators such as phospho-p65 NF-κB and phosphor-p38 MAPK
- expression of SASP factors at the mRNA levels (qRT-PCR) (SASP factors [1]; sorted senescent UPK10 cells induced by cisplatin): significantly increased the expression of SASP factors
- percentage of senescent cells induced by cisplatin with or without irinotecan (SPiDER SA-β-Gal) (UPK10 cells): comparable
- SA-β-Gal activity (SPiDER) (UPK10 cells; irinotecan alone): also induced SA-β-Gal activity
- SASP expression in cisplatin-induced senescent ID8 cells (SASP factors [2]): boosts SASP expression
